Tested on: eNOS promoter
Experiment: Activation of eNOS transcription (eNOS promoter-luciferase reporter in human endothelial cell line)
Assay type: cell-based
Conditions: human endothelial cell line stably transfected with eNOS promoter-luciferase construct, 18 h incubation, EC50 determined graphically; read-out: EC50 values of transcription induction ratios (TIR)
Protocol: A) Activation of eNOS Transcription
Activation of eNOS transcription was measured as described in detail by Li et al., “Activation of protein kinase C alpha and/or epsilon enhances transcription of the human endothelial nitric oxide synthase gene”, Mol. Pharmacol. 53 (1998), 630-637. Briefly, a 3.5 kB long fragment 5′ of the starting codon of the eNOS gene was cloned, sequenced and cloned in firefly luciferase expression plasmids to monitor activation of the eNOS promoter by reporter gene activity. A human endothelial cell line stable transfected and expressing this promoter-reporter construct was used for compound testing. Cells were incubated for 18 h with the compounds.
All compounds were dissolved in sterile dimethyl sulfoxide (DMSO). A final concentration of 0.5% DMSO in complete medium was allowed. Induction of reporter gene expression in these cells was measured using a standard luciferase assay system (Promega, Cat. No. E150) according to the manufacturer's instructions. Luciferase induction in cells incubated with compounds were compared to those incubated with solvent alone. The ratio of both activities (transcription induction ratio, TIR) was plotted as a function of compound concentration. Typically, TIR values started at low concentrations at a ratio of 1, indicating no compound effect, and extended up to a maximum TIR value TIR(max) which indicates the increase of the eNOS transcription. EC50 values of transcription induction ratios as a function of compound concentration were determined graphically.

| EC50 [nM] | Compound |
| --- | --- |
| < 500 | CCOC(=O)c1sc2nc(-c3ccc(F)cc3)cn2c1C [Example 1, 6-(4-Fluoro-phenyl)-3-methyl-imidazo[2,1-b]thiazole-2-carboxylic acid ethyl ester] |
| < 500 | CCOC(=O)c1sc2nc(-c3cccc(Cl)c3)cn2c1C [Example 2, 6-(3-Chloro-phenyl)-3-methyl-imidazo[2,1-b]thiazole-2-carboxylic acid ethyl ester] |
| < 500 | CCOC(=O)c1sc2nc(-c3ccc(C)cc3)cn2c1C [Example 3, 3-Methyl-6-p-tolyl-imidazo[2,1-b]thiazole-2-carboxylic acid ethyl ester] |
| < 500 | Cc1c(C(=O)NC(C)(C)C)sc2nc(-c3ccc(F)cc3)cn12 [Example 10, 6-(4-Fluoro-phenyl)-3-methyl-imidazo[2,1-b]thiazole-2-carboxylic acid tert-butylamide] |
| < 500 | Fc1ccc(-c2cn3cc(Br)sc3n2)cc1 [Example 22, 2-Bromo-6-(4-fluoro-phenyl)-imidazo[2,1-b]thiazole] |
